What was measured:
Type in all cases: in vivo
[1] = system: male rats of Wistar strain; assay: Open field behavior in a circular open field arena; settings: 10 mg/kg ip
Description: (§1) Behavioral effects of DL-pyroglutamyl-tryptophan (pGlu-Trp) have been studied in male rats of Wistar strain (purchased from Morini, Italy), weighing 130+10 g at the onset of experiments. Animals were kept under light- dark cycle (lights on between 8.00 and 20.00) with standard food and water available ad lib. Animals were injected intraperitoneally (ip) with 10 or 100 mg/kg of pGlu-Trp dissolved in a solution of NaHCO3 1 N and adjusted at pH 7.4 with HC1 0.1 N. Control animals received injection of the vehicle alone. Injections were performed 1 h prior to the behavioral testing. The animals were used only once for the behavioral experiments.
Open field behavior was studied in a circular open field arena. Ambulation (number of floor units entered), rearing, grooming and defecation scores were recorded during a 5-min observation session.

[2] = system: male rats of Wistar strain; assay: Hot plate test for analgesia; settings: 10 mg/kg ip
Description: as §1
Hot plate test for analgesia was studied with a circular hot plate ([…]) where the animals were placed singularly.
The latency in sec to the first behavioral reaction to hot pain (licking of paw) was recorded.

[3] = system: male rats of Wistar strain; assay: Acquisition of shuttle-box active avoidance behavior (single session test); settings: 1 h prior to testing
Description: as §1
Acquisition of active avoidance behavior was studied in a single session test. The rats were trained to avoid the unconditioned stimulus (US) of a scrambled electrical footshock (0.20 mA) delivered through the grid floor. The conditioned stimulus (CS) was a buzzer presented for 5 sec prior to the US. If no escape occurred within 20 sec of CS/US presentation, the shock was terminated. A maximum of 30 conditioning trials were given with a variable intertrial interval averaging 60 sec. The learning criterion was 5 consecutive conditioned avoidance responses (CARs). For those animals that reached this criterion in less than 30 trials, the remaining trials up to a total of 30 were considered as lARs. Indexes of avoidance behavior were the total number of CARs and the number of learners.

O=C1CC[C@@H](C(=O)N[C@@H](Cc2c[nH]c3ccccc23)C(=O)O)N1 (racemic) [pGlu-Trp, pyroglutamyltryptophan]
defecation boli [1]: decreased | Ambulation (number of floor units entered) ([1]; 5-min observation session, controls 94.5+4.7): 78.5+4.4 | grooming ([1]; treated versus control rats): No difference | rearing ([1]; treated versus control rats): No difference | analgesic effect (latency to licking of paw) [2]: No analgesic effect | total number of CARs ([3]; 10 mg/kg ip, controls 14.8+1.50, difference not significant): 12.7+1.99 | number of CARs ([3]; 100 mg/kg ip, controls 14.2+1.47, p<0.02): 19.0+1.21 | percentage of learners ([3]; 100 mg/kg ip, controls 66.6%): 90.9%
